ChEMBL document CHEMBL3596135, “A critical evaluation of pyrrolo[2,3-d]pyrimidine-4-amines as Plasmodium falciparum apical membrane antigen 1 (AMA1) inhibitors” (Medchemcomm, 2014)
Where a name gives a salt, the structure may show the parent alone. Activity calls are given as the source filed them. The rule behind the calls is not given here.

Tests used:
[1] = target: T1, Apical membrane antigen 1 (Plasmodium falciparum (isolate 3D7), UniProt Q7KQK5); assay: Binding affinity to recombinant His-tagged Plasmodium falciparum 3D7 AMA1 assessed as inhibition of interaction with biotin-tagged RON2 peptide after 30 mins by AlphaScreen assay
T1 sequence (Q7KQK5 whole entry): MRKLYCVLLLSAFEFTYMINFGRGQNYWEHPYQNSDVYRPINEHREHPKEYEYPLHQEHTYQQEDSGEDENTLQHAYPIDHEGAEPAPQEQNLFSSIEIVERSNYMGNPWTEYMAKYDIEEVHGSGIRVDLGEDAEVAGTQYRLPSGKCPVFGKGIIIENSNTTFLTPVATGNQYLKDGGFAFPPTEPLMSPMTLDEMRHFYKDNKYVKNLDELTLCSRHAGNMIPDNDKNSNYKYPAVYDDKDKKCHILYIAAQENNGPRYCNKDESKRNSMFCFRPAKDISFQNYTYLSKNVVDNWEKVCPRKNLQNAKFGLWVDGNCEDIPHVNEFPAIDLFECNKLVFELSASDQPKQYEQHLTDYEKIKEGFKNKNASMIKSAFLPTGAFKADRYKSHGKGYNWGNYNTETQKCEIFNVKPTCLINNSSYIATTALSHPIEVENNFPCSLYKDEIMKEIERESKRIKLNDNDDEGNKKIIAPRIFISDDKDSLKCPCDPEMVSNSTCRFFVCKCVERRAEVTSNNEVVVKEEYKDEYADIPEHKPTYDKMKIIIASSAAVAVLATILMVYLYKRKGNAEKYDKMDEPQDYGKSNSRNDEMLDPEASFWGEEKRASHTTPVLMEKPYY

[2] = target: T2, Apical membrane antigen 1 (Plasmodium falciparum (isolate 3D7)) (UniProt Q7KQK5); assay: Binding affinity to Plasmodium falciparum 3D7 AMA1 (104 to 442) up to 200 uM by SPR analysis
T2 sequence (whole entry): T1 sequence (Q7KQK5 whole entry)

[3] = Self-aggregating activity of the compound in phosphate buffer at pH 7.4 at 5 to 80 uM by 1D 1H-NMR spectroscopic analysis in absence of Tween 20; format: physicochemical; details: pH 7.4, 80 µM
[4] = Self-aggregating activity of the compound in phosphate buffer at pH 7.4 at 80 uM by 1D 1H-NMR spectroscopic analysis in presence of Tween 20; format: physicochemical; details: pH 7.4, 80 µM
[5] = Solubility of the compound in phosphate buffer at pH 7.4; format: physicochemical
Plasmodium falciparum [6] = assay: Antimalarial activity against synchronised early trophozoite stage of Plasmodium falciparum 3D7 assessed as parasite growth inhibition measured after two invasion cycles by flow cytometric analysis; format: functional, organism-based
[7] = target: T1, Apical membrane antigen 1; assay: Binding affinity to Plasmodium falciparum 3D7 AMA1 (104 to 442) by SPR analysis
Plasmodium falciparum [8] = assay: Antimalarial activity against Plasmodium falciparum FVO schizont infected in RBC assessed as inhibition of merozoite invasion after 3 to 4 hrs by flow cytometric analysis; format: functional, organism-based
[9] = target: T2, Apical membrane antigen 1 (Plasmodium falciparum (isolate 3D7)); assay: Competitive binding affinity to Plasmodium falciparum 3D7 AMA1 (104 to 442) at 80 uM after 200 milisecs by CPMG binding assay in presence of R1 peptide and absence of detergent
[10] = target: T2, Apical membrane antigen 1 (Plasmodium falciparum (isolate 3D7)); assay: Competitive binding affinity to Plasmodium falciparum 3D7 AMA1 (104 to 442) at 80 uM after 200 milisecs by CPMG binding assay in presence of RON2 peptide and absence of detergent
[11] = target: T2, Apical membrane antigen 1 (Plasmodium falciparum (isolate 3D7)); assay: Competitive binding affinity to Plasmodium falciparum 3D7 AMA1 (104 to 442) at 80 uM after 200 milisecs by CPMG binding assay in presence of R1 peptide and Tween 20
[12] = target: T2, Apical membrane antigen 1 (Plasmodium falciparum (isolate 3D7)); assay: Competitive binding affinity to Plasmodium falciparum 3D7 AMA1 (104 to 442) at 80 uM after 200 milisecs by CPMG binding assay in presence of RON2 peptide and Tween 20

Row | SMILES | Activity [3] | Activity [4] | solubility [5] | growth inhibition (GI) (Plasmodium falciparum [6]) | Kd [7] | further results
1 | CN(C)CCCN1c2ccccc2C(C)(C)c2ccccc21 [DIMETACRINE] | – | – | – | – | – | IC50 [1]: 28 µM
2 | Clc1ncnc2c1c(Br)cn2C1CCCC1 | – | – | – | – | – | Activity [2]: inactive
3 | Cn1cc(-c2ccccc2)c2c(N)ncnc21 | Not Active | Not Active | soluble | Active | ≥ 1000 µM | –
4 | COc1ccc(-c2cn(C)c3ncnc(N)c23)cc1 | Not Active | Not Active | soluble | Active | ≥ 1000 µM | –
5 | Cn1cc(-c2ccncc2)c2c(N)ncnc21 | Not Active | Not Active | soluble | Active | ≥ 1000 µM | –
6 | Nc1ncnc2c1c(-c1ccc(Oc3ccccc3)cc1)cn2C1CCCC1 | Active | Not Active | soluble | – | ≥ 1000 µM | IC50 (Plasmodium falciparum [8]): 30 µM; IC50 (Plasmodium falciparum [6]): > 1000 µM
7 | COc1cccc(-c2cn(C)c3ncnc(N)c23)c1 | Not Active | Not Active | soluble | Active | ≥ 1000 µM | –
8 | Cn1cc(-c2ccc(F)cc2)c2c(N)ncnc21 | Not Active | Not Active | soluble | Active | ≥ 1000 µM | –
9 | Clc1cccc(C(c2ccc3[nH]cnc3c2)n2ccnc2)c1 (stereo unspecified) [LIAROZOLE HYDROCHLORIDE] | – | – | – | – | – | IC50 [1]: 29 µM
10 | CN(C)c1ncnc2c1c(-c1ccc(Oc3ccccc3)cc1)cn2C1CCCC1 | Active | Not Active | soluble | – | ≥ 1000 µM | IC50 (Plasmodium falciparum [8]): 6 µM; IC50 (Plasmodium falciparum [6]): > 1000 µM
11 | Cn1cc(-c2cccc(F)c2)c2c(N)ncnc21 | Not Active | Not Active | soluble | – | ≥ 1000 µM | IC50 (Plasmodium falciparum [6]): < 31 µM
12 | Cn1cc(-c2ccccc2F)c2c(N)ncnc21 | Not Active | Not Active | soluble | Active | ≥ 1000 µM | –
13 | CCn1cc(-c2ccc(OC)cc2)c2c(N)ncnc21 | Not Active | Not Active | soluble | Active | ≥ 1000 µM | –
14 | COc1ccc(-c2cn(C3CCCC3)c3ncnc(N)c23)cc1 | Not Active | Not Active | soluble | – | ≥ 1000 µM | IC50 (Plasmodium falciparum [8]): 9.8 µM; Activity [9]: Active; Activity [10]: Active; Activity [11]: Active; Activity [12]: Active; IC50 (Plasmodium falciparum [6]): 63 µM
15 | Cn1cc(-c2cccc(N)c2)c2c(N)ncnc21 | Not Active | Not Active | soluble | Active | ≥ 1000 µM | –
16 | Cn1cc(-c2ccc(N)cc2)c2c(N)ncnc21 | Not Active | Not Active | soluble | Active | ≥ 1000 µM | –
17 | Clc1[nH]cnc2nccc1-2 | – | – | – | – | – | Activity [2]: inactive
18 | COc1ccccc1-c1cn(C)c2ncnc(N)c12 | Not Active | Not Active | soluble | Active | ≥ 1000 µM | –
